“And” between values parts separate entries of the source, which are not always exact repeats. Identical values can stand only once.
Assays:
[1] = biological target: T1, human histamine H4 receptor (Homo sapiens, UniProt Q9H3N8); experiment: [3H]histamine displacement assay, membranes of Sf9 cells expressing hH4R with Gαi2 and Gβ1γ2; format: binding; conditions: for Ki: Sf9 membranes, mean within 95% CI; for inhibition at 1 µM: per cent of inhibition at 1 μM, read-out: hH4R inh. at 1 μM
T1 construct: made in house; host or cells: Sf9 cells (membrane preparations)
Description: The affinity of compounds 2–20 for hH4R was evaluated in a binding assay as previously described. [^3H]Histamine was used as a radioligand and hH4R was expressed in Sf9 cells with G protein Gαi2 and Gβ1γ2 subunits. The pharmacological results represented as Ki values are listed in Table 1 (for alicyclic derivatives) and Table 2 (for aliphatic derivatives). […] Results depended on the substituent in the four positions of a triazine (a main structure).
Affinities of all triazine derivatives were determined in a [^3H] histamine (f.c. 10 nM) displacement assay using membrane preparations from Sf9 cells expressing human H4R and co-expressed with Gαi2 and Gβ1γ2 subunits as described previously. Nonspecific binding was determined in the presence of unlabelled JNJ7777120 ([…]).

hH4R [2] = biological target: T2, hH4R (Homo sapiens, UniProt Q9H3N8); experiment: cAMP accumulation assay (LANCE Ultra cAMP, CHO-K1 cells stably expressing hH4R); format: cell-based; design: expressed in transfected cells; conditions: for IC50: forskolin 10 µM, histamine 140 nM, CHO-K1 hH4R cells, read-out: cAMP hH4R IC50 ± SEM; for Kb: calculated from IC50 by Leff–Dougall variant of Cheng–Prusoff equation, read-out: pKb cAMP ± SEM (converted)
Description: Intrinsic activity via the Gα subunit was measured using a LANCE Ultra cAMP detection kit and CHO-K1 cells stably expressing hH4R. Adenyl cyclase was stimulated by forskolin (10 µM).
Intrinsic activity in G protein-dependent pathway was measured with homogenous TR-FRET immunoassay, using LANCE Ultra cAMP kit and CHO-K1 H4R cell line or γ-irradiated recombinant CHO-K1 H4R cells (all from PerkinElmer). […] If the CHO-K1 H4R cell line was used it had been cultivated in DMEM/F12 10% FBS 400 µg/mL geneticin and passaged three times a week. […] The antagonist activity was measured in a white, opaque, 384-well microplate (PerkinElmer) with a total volume of 20 µL. […] After incubation, 5 µL of europium chelate-labelled cAMP tracer and 5 µl of ULight-labelled anti-cAMP mAb working solutions were added, mixed and incubated for 1 h. TR-FRET signal was read using a microplate reader (PerkinElmer, Waltham, MA, USA).

hH4R [3] = biological target: T2, hH4R; experiment: as above; format: cell-based; design: expressed in transfected cells; conditions: antagonist mode
hH4R [4] = biological target: T2, hH4R; experiment: β-arrestin recruitment assay (LiveBLAzer, Tango-H4-bla U2OS cells); format: cell-based; design: expressed in transfected cells; host or cells: Tango-H4-bla U2OS cells; conditions: for IC50 / β-arrestin hH4R % of max. Antagonist Activity at 10 µM: antagonist mode; for IC50: histamine 500 nM (EC80), Tango-H4-bla U2OS cells, read-out: β-arrestin hH4R IC50 ± SEM; for Kb: calculated from IC50 by Leff–Dougall variant of Cheng–Prusoff equation, read-out: pKb β-arrestin ± SEM (converted)
Description: Compounds were tested using LiveBLAzer^TM assay and Tango-H4-bla U2OS cells, allowing the estimation of the percentage of β-arrestin recruitment in response to tested treatments.
All used media and reagents except DMSO and tested compounds were purchased from ThermoFisher Scientific, Waltham, MA, USA. DMSO was from CarlRoth (Karlsruhe, Germany) and histamine was from Sigma Aldrich (Darmstadt, Germany). […] The day before the experiment cells were collected from the culture flask with trypsin and seeded in 384 well black-wall, clear-bottom plate (PerkinElmer, Waltham, MA, USA) in concentration 10,000 cells/well in FreeStyle medium. After 24 h of incubation, the cells were checked under the microscope and the dilutions of tested compounds were prepared and added to the wells. In agonist mode compounds were added to the wells and plates were placed in the incubator (HERAcell240, Heraeus, Hanau, Germany) for 16 h. In antagonist mode, first, the compounds were added to the wells, plates were incubated for 30 min, then histamine solution (corresponding to EC80—500 nM) was added and plates were put in the incubator for 16 h. After this time β-lactamase substrate mixture was prepared and added to wells (8 µL/well). Cells were incubated for 2 h at room temperature in the dark then the signal was read using an EnSpire microplate reader (PerkinElmer, Waltham, MA, USA). Drawing of dose-dependent curves and IC50 calculation for compounds were made using GraphPad Prism 6 (GraphPad Software, San Diego, CA, USA).

T2 sequence (Q9H3N8 whole entry): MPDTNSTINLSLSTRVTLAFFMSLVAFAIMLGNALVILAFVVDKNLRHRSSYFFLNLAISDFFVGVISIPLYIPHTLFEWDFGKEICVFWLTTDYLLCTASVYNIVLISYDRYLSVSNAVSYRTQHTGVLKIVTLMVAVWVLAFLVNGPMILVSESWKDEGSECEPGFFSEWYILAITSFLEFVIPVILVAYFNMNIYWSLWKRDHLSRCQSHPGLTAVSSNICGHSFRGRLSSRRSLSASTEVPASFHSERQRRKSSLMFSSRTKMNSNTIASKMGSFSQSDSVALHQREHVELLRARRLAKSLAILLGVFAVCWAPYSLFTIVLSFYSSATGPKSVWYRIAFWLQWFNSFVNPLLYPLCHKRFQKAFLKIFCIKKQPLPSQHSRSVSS
T1 sequence (Q9H3N8 whole entry): as above

Compound | Ki [1] | melting point | IC50 (hH4R [2]; antagonist mode) | Kb (hH4R [2]) | cAMP hH4R % of max. Antagonist Activity at 10 µM (hH4R [3]) | IC50 (hH4R [4]) | β-arrestin hH4R % of max. Antagonist Activity at 10 µM (hH4R [4]) | Kb (hH4R [4]) | inhibition at 1 µM [1] | cAMP hH4R % of max. Antagonist Activity at 10 µM (hH4R [2]; at 10 µM, antagonist mode)
CCCCCc1nc(N)nc(N2CCN(C)CC2)n1 [Compound 19, 4-(4-Methylpiperazin-1-yl)-6-pentyl-1,3,5-triazin-2-amine] | 0.393 µM | 173 to 178 °C | 0.419 ± 0.077 µM | 0.145 µM | 97% | 0.0349 ± 0.007 µM | 99% | 0.00562 µM |  | 
CN1CCN(c2nc(N)nc(C3CCCC3)n2)CC1 [Compound 4, 4-Cyclopentyl-6-(4-methylpiperazin-1-yl)-1,3,5-triazin-2-amine] | 1.24 µM | 163 to 169 °C | 0.102 ± 0.002 µM | 0.0363 µM | 95% | 0.0688 ± 0.002 µM | 95% | 0.0115 µM |  | 
C=CC(C)Cc1nc(N)nc(N2CCN(C)CC2)n1 (centres unmarked) [Compound 18, 4-(2-Methylbut-3-enyl)-6-(4-methylpiperazin-1-yl)-1,3,5-triazin-2-amine] | 0.262 µM | 113 to 115 °C | 0.188 ± 0.045 µM | 0.0646 µM | 104% | 0.0666 ± 0.003 µM | 101% | 0.011 µM |  | 
CC/C=C/Cc1nc(N)nc(N2CCN(C)CC2)n1 [Compound 20, (E)-4-(4-Methylpiperazin-1-yl)-6-(pent-2-enyl)-1,3,5-triazin-2-amine] |  | 117 to 119 °C |  |  |  | 0.376 ± 0.009 µM | 101% |  | 6% | 
C=CCCc1nc(N)nc(N2CCN(C)CC2)n1 [Compound 16, 4-(But-3-enyl)-6-(4-methylpiperazin-1-yl)-1,3,5-triazin-2-amine] | 0.319 µM | 132 to 133 °C | 0.635 ± 0.123 µM | 0.219 µM | 104% | 0.146 ± 0.038 µM | 94% | 0.0234 µM |  | 
CN1CCN(c2nc(N)nc(C3CCC3)n2)CC1 [Compound 3, 4-Cyclobutyl-6-(4-methylpiperazin-1-yl)-1,3,5-triazin-2-amine] | ~0.2 µM and 0.2 µM | 127 to 132 °C | 0.104 ± 0.017 µM | 0.0372 µM | 109% | 0.1 ± 0.015 µM | 87% | 0.0166 µM |  | 
CC(C)CCc1nc(N)nc(N2CCN(C)CC2)n1 [Compound 14, 4-Isopentyl-6-(4-methylpiperazin-1-yl)-1,3,5-triazin-2-amine] | 0.203 µM | 123 to 126 °C | 0.043 ± 0.017 µM | 0.0138 µM | 107% | 0.024 ± 0.003 µM | 101% | 0.00389 µM |  | 
CCC(C)Cc1nc(N)nc(N2CCN(C)CC2)n1 (centres unmarked) [Compound 12, 4-(2-Methylbutyl)-6-(4-methylpiperazin-1-yl)-1,3,5-triazin-2-amine] | 0.321 µM | 115 to 116 °C | 0.132 ± 0.009 µM | 0.0468 µM | 111% | 0.038 ± 0.007 µM | 100% | 0.00617 µM |  | 
CC/C=C/c1nc(N)nc(N2CCN(C)CC2)n1 [Compound 15, (E) 4-(But-1-enyl)-6-(4-methylpiperazin-1-yl)-1,3,5-triazin-2-amine] | 1.49 µM | 125 to 126 °C |  |  |  |  |  |  |  | 
CN1CCN(c2nc(N)nc(CC3C=CCC3)n2)CC1 (centres unmarked) [Compound 7, 4-(Cyclopent-2-enylmethyl)-6-(4-methylpiperazin-1-yl)-1,3,5-triazin-2-amine] | 0.096 µM | 166 to 169 °C | 0.033 ± 0.002 µM | 0.0115 µM | 104% | 0.014 ± 0.001 µM | 103% | 0.00234 µM |  | 
CN1CCN(c2nc(N)nc(CC3CCCCC3)n2)CC1 [TR-AF-49] |  |  | 0.271 ± 0.011 µM | 0.0955 µM | 98% | 0.068 ± 0.007 µM | 99% | 0.0112 µM |  | 
C=CCC(C)c1nc(N)nc(N2CCN(C)CC2)n1 (centres unmarked) [Compound 17, 4-(4-Methylpiperazin-1-yl)-6-(pent-4-en-2yl)-1,3,5-triazin-2-amine] | 0.263 µM | 134 to 136 °C | 0.721 ± 0.07 µM | 0.257 µM | 94% | 0.744 ± 0.139 µM | 92% | 0.117 µM |  | 
S=C(NC1CCCCC1)N1CCC(c2cnc[nH]2)CC1 [Thioperamide, reference compound] |  |  |  |  |  |  | 102% |  |  | 111%
CN1CCN(c2nc(N)nc(C3CCCCC3)n2)CC1 [Compound 5, 4-Cyclohexyl-6-(4-methylpiperazin-1-yl)-1,3,5-triazin-2-amine] | 0.432 µM | 133 to 138 °C | 0.219 ± 0.024 µM | 0.0759 µM | 98% | 0.101 ± 0.01 µM | 92% | 0.0166 µM |  | 
CCCCc1nc(N)nc(N2CCN(C)CC2)n1 [Compound 10, 4-Butyl-6-(4-methylpiperazin-1-yl)-1,3,5-triazin-2-amine] | 0.192 µM | 117 to 118 °C | 0.445 ± 0.01 µM | 0.158 µM | 105% | 0.082 ± 0.005 µM | 96% | 0.0135 µM |  | 
COC(C)Cc1nc(N)nc(N2CCN(C)CC2)n1 (centres unmarked) [Compound 13, 4-(2-Methoxypropyl)-6-(4-methylpiperazin-1-yl)-1,3,5-triazin-2-amine] | 4.26 µM | 148 to 151 °C |  |  |  |  |  |  |  | 
CN1CCN(c2nc(N)nc(CC34CC5CC(CC(C5)C3)C4)n2)CC1 [Compound 9, 4-(1-Adamantylmethyl)-6-(4-methylpiperazin-1-yl)-1,3,5-triazin-2-amine] |  | 200 to 201 °C |  |  |  |  |  |  | 43% | 
CN1CCN(c2nc(N)nc(C3CC3)n2)CC1 [Compound 2, 4-Cyclopropyl-6-(4-methylpiperazin-1-yl)-1,3,5-triazin-2-amine] | 0.574 µM | 156 to 159 °C | 0.847 ± 0.053 µM | 0.302 µM | 99% | 0.287 ± 0.03 µM | 96% | 0.0479 µM |  | 
CCCC(C)c1nc(N)nc(N2CCN(C)CC2)n1 (centres unmarked) [Compound 11, 4-(4-Methylpiperazin-1-yl)-6-(pentan-2-yl)-1,3,5-triazin-2-amine] | 0.353 µM | 138 to 140 °C | 0.64 ± 0.049 µM | 0.224 µM | 100% | 0.097 ± 0.016 µM | 97% | 0.0158 µM |  | 

— publication PMC10224356, “Trisubstituted 1,3,5-Triazines as Histamine H4 Receptor Antagonists with Promising Activity In Vivo” (Molecules, 2023)
